Values after ≈ are worked out from the molar mass of the structure shown. Structures can show the parent of a compound that is named as a salt. Where two headings read alike, the source gives them in different places.
Key:
[1] = test system: Enterococci (E. faecium and E. faecalis); assay: In vitro antibacterial evaluation, Enterococci; format: cell-based; conditions: in words
Protocol: (§1) The compounds of the invention were evaluated against several β-lactamresistant bacteria strains by determining the minimum inhibitory concentration (MIC, μg/ml) of each compound with respect to each strain. The MIC, the lowest concentration of antibiotic which inhibits growth of the test organism, was determined by the agar dilution method.
(§2) To determine the MIC for bacterial isolates, the test compound was incorporated in a series of two-fold dilutions into liquified Mueller-Hinton agar. Upon solidification, a number of different bacterial strains were spot inoculated with a replicating device onto the agar surface. […] The procedures used in these studies have been standardized by the National Committee for Clinical Laboratory Standards (NCCLS), as per the NCCLS publication entitled METHODS FOR DILUTION ANTIMICROBIAL SUSCEPTIBILITY TESTS (1991), which is incorporated herein by reference.
(§3) Aliquots of antimicrobial agents were prepared in phosphate buffered saline (PBS) at pH 7.2. Tween 20 or DMSO was used as a solubilizing vehicle as needed. Standard methods of vortexing, sonicating and gentle heat were used to facilitate solubilizing the test agent. Typically, the concentration of the stock solution was 10× that of the highest drug concentration tested. A 1.28 mg/mL stock solution was used with a subsequent highest working concentration of 128 μg/mL. Serial two-fold dilutions were done through ≤0.25 μg/mL. Each drug level was tested in duplicate. Two-fold drug dilutions were done in sterile 50 mL tubes with a final drug volume of 5 mL. Upon the addition of 45 mL of molten agar, a 10-fold dilution resulted. Two, 25 mL. plates were then poured into 15×150 mm square Petri plates with grids and allowed to harden.
A control plate with a reference drug, either cefotaxime, vancomycin or imipenem, was used as the positive growth control. […]
Disposable sterile 1 μL loops were used to inoculate test plates, with each isolate in a designated grid on the agar plate. […] Endpoints were assessed as the minimum inhibitory concentration (MIC) of antimicrobial agent.

[2] = test system: S. aureus Col (Meth^R) (lac^-); assay: MIC by agar dilution, S. aureus Col (Meth^R) (lac^-); format: cell-based; conditions: for MIC: Staphylococcus aureus, agar dilution, S. aureus Col (Meth^R) (lac^-), read-out: MIC; for activity against S. aureus Col: in words, PBP2a producer
In short: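 Agar dilution per NCCLS (1991): two-fold dilutions from 128 μg/mL down to ≤0.25 μg/mL in Mueller-Hinton agar, each level in duplicate. Spots of about 10^4 cfu of log-phase culture; 16-20 h at 35°-36° C. MIC in μg/ml is the lowest concentration inhibiting growth.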

[3] = test system: S. aureus Col8A (Meth^S) (lac^-); assay: MIC by agar dilution, S. aureus Col8A (Meth^S) (lac^-); format: cell-based; conditions: for MIC: Staphylococcus aureus, agar dilution, S. aureus Col8A (Meth^S) (lac^-), read-out: MIC
Protocol: as §1, §2, §3
(§4) A control plate with a reference drug, either cefotaxime, vancomycin or imipenem, was used as the positive growth control. Stock concentrations of reference antibiotics were prepared and frozen at -80° C. Upon preparation, the control plates were sealed and stored in the refrigerator for up to 1 week prior to use; however, imipenem control plates had to be prepared just prior to use. All test plates were used within 24 hours of preparation.
(§5) Satisfactory results were obtained where the inoculum contained about 10^4 colony forming units (cfu) ±0.5 logs. Starting with pure cultures of the test isolates on agar plates, a few isolated colonies were transferred to a tube of nutrient broth and allowed to grow 4-6 hours at 35°-36° C. to reach log-phase growth. Dropwise addition of the broth culture to PBS was done to match a 0.5 McFarland turbidity standard equal to 10^8 cfu/mL. This was further diluted ten-fold in PBS to reach a working inoculum concentration of 10^7 cfu/mL. When 1 μL of the working inoculum was applied to the agar surface a concentration of about 10^4 cfu per spot was obtained.
(§6) Disposable sterile 1 μL loops were used to inoculate test plates, with each isolate in a designated grid on the agar plate. An alternate method of inoculation involved the use of a replica plater, a device with 48 steel pins allowing the simultaneous inoculation of multiple isolates. After the spots had dried, the plates were incubated at 35°-36° C. for 16-20 hours. Endpoints were assessed as the minimum inhibitory concentration (MIC) of antimicrobial agent.
The novel agents of this invention are notable for their enhanced activity against S. aureus Col and Enterococci (E. faecium and E. faecalis). The S. aureus Col strain is a high-level PBP2a producer, whereas S. aureus Col 8A, its isogenic partner, lacks PBP2a. […] Thus, the compounds of the present invention are effective against PBP2a-producing bacteria.

[4] = test system: S. aureus ATCC 29213; assay: MIC by agar dilution, S. aureus ATCC 29213; format: cell-based; conditions: Staphylococcus aureus, ATCC29213
Protocol: as §1, §2, §3, §4, §5, §6

[5] = test system: methicillin-susceptible S. aureus strain ATCC 13709; assay: murine model for lethal bacteremic peritonitis; format: in vivo, female Swiss-Webster mice; conditions: subcutaneous, 72 h; for ED50: Staphylococcus aureus, ATCC13709, sc, two equal doses, S. aureus ATCC 13709 IP challenge, read-out: ED50
In short: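 Female Swiss-Webster mice challenged IP with an LD100 titer of bacteria in 7% hog gastric mucin; groups of 10 treated SC with twofold drug increments (0.01–512 mg/kg) as two equal doses at challenge and 2 h later. Survival followed for 72 h; PD50 (total mg/kg) calculated by probit method.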

[6] = test system: E. faecalis ATCC 29212; assay: MIC by agar dilution, E. faecalis ATCC 29212; format: cell-based; conditions: Enterococcus faecalis, ATCC29212, read-out: MIC
Protocol: as §1, §2, §3, §4, §5, §6

[7] = test system: E. coli ATCC 25922; assay: MIC by agar dilution, E. coli ATCC 25922; format: cell-based; conditions: Escherichia coli, ATCC25922, read-out: MIC
Protocol: as §1, §2, §3, §4, §5, §6

[8] = test system: S. aureus 76 (Meth^R) (lac^+); assay: MIC by agar dilution, S. aureus 76 (Meth^R) (lac^+); format: cell-based; conditions: Staphylococcus aureus, read-out: MIC
Protocol: as §1, §2, §3, §4, §5, §6

[9] = test system: S. haemolyticus (Meth^R); assay: MIC by agar dilution, S. haemolyticus (Meth^R); format: cell-based; conditions: Staphylococcus haemolyticus, read-out: MIC
Protocol: as §1, §2, §3, §4, §5, §6

[10] = test system: P. aeruginosa ATCC 27853; assay: MIC by agar dilution, P. aeruginosa ATCC 27853; format: cell-based; conditions: Pseudomonas aeruginosa, ATCC27853, read-out: MIC
Protocol: as §1, §2, §3, §4, §5, §6

[11] = test system: E. faecium ATCC 35667; assay: MIC by agar dilution, E. faecium ATCC 35667; format: cell-based; conditions: Enterococcus faecium, ATCC35667, read-out: MIC
Protocol: as §1, §2, §3, §4, §5, §6

[12] = agar dilution, S. aureus ATCC 29213, read-out: MIC

Row | SMILES | MIC [2] [µg/mL] | MIC [4, 12] [µg/mL] | MIC [3] [µg/mL] | Mortality ([5]; dose 0.625 mg/kg) | Mortality ([5]; dose 1.25 mg/kg) | Mortality ([5]; dose 2.5 mg/kg) | MIC [6] [µg/mL] | MIC [7] [µg/mL] | ED50 [5] [mg/kg] | Mortality ([5]; dose 0.1562 mg/kg) | Mortality ([5]; dose 0.3125 mg/kg) | MIC [8] [µg/mL] | MIC [9] [µg/mL] | MIC [10] [µg/mL] | MIC [11] [µg/mL] | also measured
1 | O=C(Cc1ccccc1)N[C@@H]1C(=O)N2C(C(=O)O)=C(Sc3ccccc3-c3ccccc3)CS[C@H]12 [Cmpd 9, (7R)-7-[(Phenylacetyl)amino]-3-(2-biphenylthio)-3-cephem-4-carboxylic acid] | 4 (≈ 7.96 µM) |  |  |  |  |  |  |  |  |  |  |  |  |  |  | activity against Enterococci [1]: broad activity; activity against S. aureus Col [2]: broad activity; activity against S. aureus Col 8A ([3]; in words, lacks PBP2a): broad activity
2 | O=C(Cc1ccccc1)N[C@@H]1C(=O)N2C(C(=O)O)=C(SCc3ccc(-c4ccccc4)cc3)CS[C@H]12 [Cmpd 12, (7R)-7-[(Phenylacetyl)amino]-3-(4-biphenylmethylthio)-3-cephem-4-carboxylic acid] | > 32 |  |  |  |  |  |  |  |  |  |  |  |  |  |  | activity against Enterococci [1]: potent activity; activity against S. aureus Col [2]: lacking activity
3 | O=C(COc1ccccc1)N[C@@H]1C(=O)N2C(C(=O)O)=C(Sc3ccnn3-c3ccccc3)CS[C@H]12 [Cmpd 112, (7R)-7-[(phenyloxyacetyl)amino]-3-(1-N-phenylpyrazol-5-ylthio)-3-cephem-4-carboxylic acid] | 4 (≈ 7.87 µM) | ≤ 0.06 | ≤ 0.06 |  |  |  |  |  |  |  |  |  |  |  |  | 
4 | O=C(CS/C=C\Cl)N[C@@H]1C(=O)N2C(C(=O)O)=C(Sc3ccnn3-c3ccccc3)CS[C@H]12 [Cmpd 131, (7R)-7-[((Z-2-Chlorovinyl)thioacetyl)amino]-3-(1-N-phenylpyrazol-5-ylthio)-3-cephem-4-carboxylic acid] | 1 (≈ 1.96 µM) | < 0.06 |  | 9/10 | 7/10 | 4/10 |  |  |  |  |  |  |  |  |  | Mortality ([5]; dose 5 mg/kg): 0/10; Mortality ([5]; dose 10 mg/kg): 0/10
5 | N=C(N)SCc1ccc(SC2=C(C(=O)O)N3C(=O)[C@@H](NC(=O)Cc4ccccc4)[C@H]3SC2)c(CSC(=N)N)c1 [Cmpd 138, (7R)-7-[(phenylacetyl)amino]-3-[2,4-(bis) (isothiouroniummethyl)phenylthio]-3-cephem-4-carboxylate, trifluoroacetic acid salt] | 2 | 0.125 | ≤ 0.06 |  |  |  | 0.5 | 32 | 0.075 | 0/10 | 0/10 | 8 | 8 | > 32 | 0.5 | Mortality ([5]; dose 0.0195 mg/kg): 9/10; Mortality ([5]; dose 0.0391 mg/kg): 10/10; Mortality ([5]; dose 0.0781 mg/kg): 6/10
6 | N=C(N)SCc1ccc(SC2=C(C(=O)O)N3C(=O)[C@@H](NC(=O)/C(=N\O)c4csc(N)n4)[C@H]3SC2)c(CSC(=N)N)c1 [Cmpd 139, (7R)-7-[(Z)-2-(Aminothiazol-4-yl)-2-(hydroxyimino)acetamido]-3-[2,4-(bis)isothiouroniummethylphenylthio]-3-cephem-4-carboxylate, trifluoroacetic acid salt] | 4 | 0.25 | 0.25 | 4/10 | 0/10 | 1/10 | 0.125 | 1 | 0.28 | 4/10 | 8/10 | 4 | 4 | > 32 | 0.5 | 
7 | CSCC(=O)N[C@@H]1C(=O)N2C(C(=O)O)=C(Sc3ccc(CSC(=N)N)cc3CSC(=N)N)CS[C@H]12 [Cmpd 140, (7R)-7-[(methylthioacetyl)amino]-3-[2,4-(bis)isothiouroniummethylphenylthio]-3-cephem-4-carboxylate, trifluoroacetic acid salt] | 2 | 0.125 | ≤ 0.06 | 2/10 | 0/10 | 0/10 | 1 | > 32 | < 0.156 | 0/10 | 1/10 | 8 | 8 | > 32 | 1 | 
8 | N=C(N)NCCSCC(=O)N[C@@H]1C(=O)N2C(C(=O)O)=C(Sc3ccc(CSC(=N)N)cc3CSC(=N)N)CS[C@H]12 [Cmpd 141, (7R)-7-[((2-guanidinoethylthio)acetyl)amino]-3-[2,4-(bis)isothiouroniummethylphenylthio]-3-cephem-4-carboxylate, trifluoroacetic acid salt] | 2 | 0.25 | 0.25 | 2/10 | 1/10 | 1/10 | 1 | 4 | < 0.156 | 3/10 | 3/10 | 8 | 8 | > 32 | 0.5 | 
9 | N=C(N)SCCSCC(=O)N[C@@H]1C(=O)N2C(C(=O)O)=C(Sc3ccc(CSC(=N)N)cc3CSC(=N)N)CS[C@H]12 [Cmpd 142, (7R)-7-[((2-(isothiouronium)ethylthio)acetyl)amino]-3-[2,4-(bis)isothiouroniummethylphenylthio]-3-cephem-4-carboxylate, trifluoroacetic acid salt] | 4 | 0.25 | 0.25 | 0/10 | 0/10 | 0/10 | 1 |  | < 0.156 | 3/10 | 1/10 | 8 | 8 | > 32 | 0.5 | 
10 | N=C(N)SCCSCC(=O)N[C@@H]1C(=O)N2C(C(=O)O)=C(Sc3ccccc3CSC(=N)N)CS[C@H]12 [Cmpd 143, (7R)-7-[((2-(isothiouronium)ethylthio)acetyl)amino]-3-[2-(isothiouroniummethyl)phenylthio]-3-cephem-4-carboxylate, trifluoroacetic acid salt] | 8 |  | 0.125 | 2/10 |  |  | 0.5 | 8 | 0.34 | 9/10 | 6/10 | 16 | 16 | > 32 | 0.5 | MIC [4]: 0.125 µg/mL; Mortality ([5]; dose 0.0391 mg/kg): 9/10; Mortality ([5]; dose 0.0781 mg/kg): 8/10

From patent publication US5698547A, “Cephalosporin antibiotics” (Microcide Pharmaceuticals, Inc., priority 1995, dated 1997)
